Laboratory results as given in publication PMC9569529, “Safe and Efficient Sigma1 Ligand: A Potential Drug Candidate for Multiple Sclerosis” (International Journal of Molecular Sciences, 2022).

Legend:
SH-SY5Y = assay: Cytotoxicity in human neuroblastoma cell line (MTT/MTS); assay type: cell-based; conditions: 72 h
Protocol: Toxicity analysis was performed in the human neuroblastoma cell line (SH-SY5Y), which was cultured in Dulbecco’s Modified Eagle Medium (DMEM, Gibco) supplemented with 2 mM L-glutamine (Invitrogen, Thermo Fisher Scientific Inc. Waltham, MA, USA), […] streptomycin (Invitrogen), 100 IU/mL penicillin (Invitrogen), 1 mM non-essential amino acids (Invitrogen) and 10% (v/v) heat inactivated fetal bovine serum (Sigma Aldrich, Burlington, MA, USA) and grown at 37 °C in a humidified incubator with 5% CO2. […] After 72 h of incubation, cell growth was estimated by the colorimetric MTT assay (CellTiter 96® aqueous one solution cell proliferation assay-MTS, Promega, Madison, WI, USA) according to the manufacturer’s protocol. Absorbance was read at 490 nm and results were expressed as % from the control condition considered as 100%.

S. typhimurium TA1537 = assay: Ames test; conditions: 7i 40 µg/plate
QT interval = assay: ECG QT interval analysis under isoflurane anesthesia; conditions: for QT Interval Basal / QT Interval 3 min / QT Interval 6 min / QT Interval 10 min / QT Interval 20 min / QT Interval 30 min: in ms (unit assumed); for QT Interval 3 min: 3 min after injection; for QT Interval 6 min: 6 min after injection; for QT Interval 10 min: 10 min after injection; for QT Interval 20 min: 20 min after injection; for QT Interval 30 min: 30 min after injection
Protocol: Four electrodes were inserted subcutaneously in the mouse limbs. Electrical signals were recorded with a Powerlab (Ad instruments) and analyzed with LabChart Pro software (v8.1.19).
Heart rate and PR, QRS and QT intervals were measured as described in Supplementary Figure S3.

P-gp [1] = target: T1, P-gp (Homo sapiens, UniProt P08183); assay: P-gp substrate assessment, Caco-2 with and without verapamil; assay type: in vitro ADME
T1 construct: in the Caco-2 cell line with and without verapamil; host or cells: Caco-2
T1 sequence (P08183 whole entry): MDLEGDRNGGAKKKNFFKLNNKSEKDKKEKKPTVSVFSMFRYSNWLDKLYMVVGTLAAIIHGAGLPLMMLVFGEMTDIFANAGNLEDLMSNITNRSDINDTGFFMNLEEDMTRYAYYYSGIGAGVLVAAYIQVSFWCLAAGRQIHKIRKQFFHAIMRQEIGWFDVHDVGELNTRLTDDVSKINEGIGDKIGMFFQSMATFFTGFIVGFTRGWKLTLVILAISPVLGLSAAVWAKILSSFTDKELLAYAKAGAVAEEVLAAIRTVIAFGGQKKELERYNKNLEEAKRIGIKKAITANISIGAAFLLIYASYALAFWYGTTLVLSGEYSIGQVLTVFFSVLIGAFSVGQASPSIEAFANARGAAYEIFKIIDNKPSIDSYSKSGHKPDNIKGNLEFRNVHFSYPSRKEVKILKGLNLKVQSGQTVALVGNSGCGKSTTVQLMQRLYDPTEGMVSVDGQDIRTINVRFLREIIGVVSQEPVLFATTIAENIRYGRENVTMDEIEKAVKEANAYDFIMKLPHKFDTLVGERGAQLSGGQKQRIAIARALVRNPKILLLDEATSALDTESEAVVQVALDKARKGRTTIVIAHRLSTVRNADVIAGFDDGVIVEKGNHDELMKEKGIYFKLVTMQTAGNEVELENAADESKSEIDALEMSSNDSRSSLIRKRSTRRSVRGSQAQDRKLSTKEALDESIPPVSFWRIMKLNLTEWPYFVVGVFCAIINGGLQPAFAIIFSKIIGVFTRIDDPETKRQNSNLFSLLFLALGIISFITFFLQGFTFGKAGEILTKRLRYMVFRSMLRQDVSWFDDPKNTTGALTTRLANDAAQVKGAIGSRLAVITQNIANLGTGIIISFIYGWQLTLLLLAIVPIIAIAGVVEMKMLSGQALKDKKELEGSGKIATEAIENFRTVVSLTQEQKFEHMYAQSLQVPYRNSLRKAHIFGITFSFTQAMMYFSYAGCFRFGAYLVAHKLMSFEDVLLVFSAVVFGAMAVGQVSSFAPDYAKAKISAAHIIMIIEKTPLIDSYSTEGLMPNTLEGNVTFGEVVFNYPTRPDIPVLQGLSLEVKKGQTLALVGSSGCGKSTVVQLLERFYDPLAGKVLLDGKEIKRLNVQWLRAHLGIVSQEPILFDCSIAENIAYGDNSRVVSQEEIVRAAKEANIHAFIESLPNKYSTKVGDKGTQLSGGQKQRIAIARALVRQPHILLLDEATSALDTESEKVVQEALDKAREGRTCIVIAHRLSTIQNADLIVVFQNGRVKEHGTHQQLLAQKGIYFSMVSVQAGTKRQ
Protocol: (§1) The compound was classically evaluated at 10 µM for all the ADME analyses. Bidirectional permeability (apical A to basolateral B pH 6.5/7.4 and basolateral B to apical A pH 7.4/6.5) was assessed in the epithelial colorectal adenocarcinoma cell line (Caco-2 cell line). Results were expressed as × 10^−6cm/s (Papp) and as % recovery. Efflux ratio, i.e., Papp(B-A)/Papp(A-B), was calculated. Plasma protein binding was analyzed by HPLC-MS/MS after 4-h incubation at 37 °C, as described by Banker et al.. Concentration was evaluated by LC/MS-MS. CYP inhibition was performed in human liver microsomes as described in [61]. Analysis of the respective metabolites. was performed by HPLC-MS/MS. Transporter inhibition analysis was also performed in overexpressing cell lines. Respective metabolites for each specific transporter substrate were analyzed by fluorometry or scintillation counting and % inhibition of control values were calculated. P-glycoprotein transporter substrate assessment was performed by bidirectional permeability analysis (apical A to basolateral B pH 7.4/7.4 and basolateral B to apical A pH 7.4/7.4) in the Caco-2 cell line with and without verapamil, as described in [59]. Results were expressed as ×10^−6 cm/s (Papp) and as % recovery. The efflux ratio, i.e., Papp(B-A)/Papp(A-B), was calculated. CYP450 induction characterization was performed on human hepatocytes. The mRNA levels of 7 different CYPs were analyzed by qPCR, as described in [72]. The compound was evaluated at 1, 10 and 100 µM. Fold-induction values were determined and compared to cut-off values, as defined for each CYP isozyme in each hepatocyte lot.

P-gp [2] = tested on: T2, P-gp; assay: as above; assay type: in vitro ADME; conditions: human
T2 construct: in the Caco-2 cell line with and without verapamil; host or cells: Caco-2
Protocol: as §1

S. typhimurium TA98 = assay: Ames test; conditions: 7i 40 µg/plate
TK6 cells = assay: In vitro micronucleus test
Protocol: The frequency of micronucleated (MN) cells was determined out of at least 2000 mononucleated cells.

CYP3A4 = assay: CYP induction in human hepatocytes (mRNA, qPCR); assay type: in vitro ADME; conditions: 10 µM
Protocol: as §1

CYP1A2 = assay: CYP induction in human hepatocytes (mRNA, qPCR); assay type: in vitro ADME; conditions: 10 µM
Protocol: as §1

CYP2B6 = assay: CYP induction in human hepatocytes (mRNA, qPCR); assay type: in vitro ADME; conditions: 10 µM
Protocol: as §1

[3] = +S9, positive control 2-anthramine 0.5
[4] = 3 h treatment + 24 h recovery, +S9, 68.75 µg/mL
[5] = 3 h treatment + 24 h recovery, +S9, 137.5 µg/mL
[6] = 3 h treatment + 24 h recovery, +S9, 275 µg/mL
[7] = 3 h treatment + 24 h recovery, −S9, 68.78 µg/mL
[8] = 3 h treatment + 24 h recovery, −S9, 137.5 µg/mL
[9] = 3 h treatment + 24 h recovery, −S9, 275 µg/mL
[10] = 27 h continuous treatment, −S9, 68.75 µg/mL
[11] = 27 h continuous treatment, −S9, 137.5 µg/mL
[12] = 27 h continuous treatment, −S9, 275 µg/mL

## O=C(NCCCNCc1ccccc1)c1ccc(Cl)cc1 [compound 7i-deMe]
SH-SY5Y
  inhibition at 100 µM: 77%

## CN(CCCNC(=O)c1ccc(Cl)cc1)Cc1ccccc1 [compound 7i]
S. typhimurium TA1537; [3]
  Ames TA1537 +S9 (Mean revertants/well per title): 1.1
S. typhimurium TA1537; −S9, positive control 9-amino-acridine 1.56
  Ames TA1537 −S9 (Mean revertants/well per title): 0.9
QT interval; 0.5 mg/kg i.p. group
  QT Interval Basal: 49 ± 3
QT interval; 0.5 mg/kg i.p.
  QT Interval 3 min: 48 ± 4
  QT Interval 6 min: 46 ± 4
  QT Interval 10 min: 53 ± 3
  QT Interval 20 min: 59 ± 4
  QT Interval 30 min: 58 ± 3
QT interval; 1.0 mg/kg i.p. group
  QT Interval Basal: 48 ± 1
QT interval; 1.0 mg/kg i.p.
  QT Interval 3 min: 45 ± 2
  QT Interval 6 min: 46 ± 2
  QT Interval 10 min: >49 ± 1
QT interval; 10.0 mg/kg i.p. group
  QT Interval Basal: 46 ± 1
QT interval; 10.0 mg/kg i.p.
  QT Interval 3 min: 43 ± 1
  QT Interval 6 min: 45 ± 3
  QT Interval 10 min: 49 ± 2
  QT Interval 20 min: 52 ± 1
  QT Interval 30 min: 54 ± 1
QT interval; 0.5 to 10 mg/kg i.p.
  cardiac repolarization (QT interval), conclusion: no alteration in cardiac repolarization
  heart rate, PR and QRS duration: did not alter
  pro-arrhythmic effect: does not induce a pro-arrhythmic effect
P-gp [1]; comparison of efflux ratios with/without verapamil
  P-gp substrate (conclusion): not a substrate
P-gp [1]; human, pH 7.4, Caco-2, 10 µM, PBS (no verapamil), read-out: P-gp substrate, PBS, A/B pH7.4/7.4
  Papp A→B at 10 µM: 45.8 ×10⁻⁶ cm/s
P-gp [1]; human, pH 7.4, Caco-2, 10 µM, PBS (no verapamil), read-out: P-gp substrate, PBS, B/A pH7.4/7.4
  Papp B→A at 10 µM: 11.7 ×10⁻⁶ cm/s
P-gp [1]; human, Caco-2, pH 7.4/7.4, PBS (no verapamil), read-out: P-gp substrate, PBS, e-ratio
  efflux ratio at 10 µM: 0.3
P-gp [2]; pH 7.4, Caco-2, 10 µM, with verapamil, read-out: P-gp substrate, Verapamil, A/B pH7.4/7.4
  Papp A→B at 10 µM: 28 ×10⁻⁶ cm/s
P-gp [2]; pH 7.4, Caco-2, 10 µM, with verapamil, read-out: P-gp substrate, Verapamil, B/A pH7.4/7.4
  Papp B→A at 10 µM: 16.9 ×10⁻⁶ cm/s
P-gp [2]; Caco-2, pH 7.4/7.4, with verapamil, read-out: P-gp substrate, Verapamil, e-ratio
  efflux ratio at 10 µM: 0.6
S. typhimurium TA98; [3]
  Ames TA98 +S9 (Mean revertants/well per title): 1.1
S. typhimurium TA98; −S9, positive control 2-nitrofluorene 0.5
  Ames TA98 −S9 (Mean revertants/well per title): 1.1
TK6 cells; [4]
  MN/2 × 10^3 Cells: 10.5
  RS (%): 106.1%
TK6 cells; [5]
  MN/2 × 10^3 Cells: 6.0
  RS (%): 97.2%
TK6 cells; [6]
  MN/2 × 10^3 Cells: 9.0
  RS (%): 103.7%
TK6 cells; [7]
  MN/2 × 10^3 Cells: 6.0
  RS (%): 94.1%
TK6 cells; [8]
  MN/2 × 10^3 Cells: 8.0
  RS (%): 92.7%
TK6 cells; [9]
  MN/2 × 10^3 Cells: 8.0
  RS (%): 80.0%
TK6 cells; [10]
  MN/2 × 10^3 Cells: 1.0
  RS (%): 86.6%
TK6 cells; [11]
  MN/2 × 10^3 Cells: 7.0
  RS (%): 84.2%
TK6 cells; [12]
  MN/2 × 10^3 Cells: 6.0
  RS (%): 70.1%
TK6 cells; TK6 cells, ±S9
  genotoxic characteristics (micronucleus, conclusion): no genotoxic characteristics
CYP3A4; three donors
  modulation of CYP3A4 (induction, conclusion): No modulation
CYP3A4; donor #1, cut-off (4)
  CYPs induction CYP3A4, donor #1: 4.2%
CYP3A4; donor #2, cut-off (6)
  CYPs induction CYP3A4, donor #2: 1.6%
CYP3A4; donor #3, cut-off (3)
  CYPs induction CYP3A4, donor #3: 0.8%
CYP1A2; three donors
  modulation of CYP1A2 (induction, conclusion): No modulation
CYP1A2; donor #1, cut-off (2)
  CYPs induction CYP1A2, donor #1: 2.7%
CYP1A2; donor #2, cut-off (5)
  CYPs induction CYP1A2, donor #2: 1.5%
CYP1A2; donor #3, cut-off (2)
  CYPs induction CYP1A2, donor #3: 1.9%
CYP2B6; three donors
  modulation of CYP2B6 (induction, conclusion): No modulation
CYP2B6; donor #1, cut-off (3)
  CYPs induction CYP2B6, donor #1: 4.1%
CYP2B6; donor #2, cut-off (4)
  CYPs induction CYP2B6, donor #2: 4.1%
CYP2B6; donor #3, cut-off (2)
  CYPs induction CYP2B6, donor #3: 4.2%
